For one series, the target named is T1, HIV RT (Human immunodeficiency virus type 1 group M subtype B, UniProt P04585).
T1 construct: HIV RT (final concentration, 1,200 nM)
Description: HIV-RT primer extension assay (chain termination). The series is classed as biochemical. To be noted: 1 µM each dNTP. Here is the method: The reaction protocol was adapted from previous work. Primers and template used for this assay are described in Fig 8A.
All reagent stocks were in a base assay buffer consisting of 50 mM Tris pH 7.5 and 50 mM NaCl in nuclease-free water. […] Samples were then heated to 95 °C for 10 min prior to storage at −20 °C until being resolved by polyacrylamide gel electrophoresis with 7 M urea.

Series [1] concerns HIV-1. Description: Multicycle antiviral assay in MT4-GFP cells. The settings on record: 10% NHS. The class given is cell-based. Here is the method:
Compounds were evaluated for their ability to prevent HIV-1 infection in MT4-GFP cells as described in Diamond, and colleagues. HIV-1 replication was monitored using the MT4-gag-GFP clone D3, and MT4 cells with a GFP reporter gene, the expression of which is dependent on the HIV-1 expressed proteins tat and rev. […] Proviral variants used for these studies were generated by site-directed mutagenesis in the WT R8 proviral plasmid. Virus was produced by transfection in 293T cells.
Briefly, MT4-GFP cells were cultured overnight with the appropriate HIV-1 variant at an approximate multiplicity of infection of 0.01. After approximately 19 h of infection, the cells were washed and resuspended in assay media containing 10% normal human serum (NHS) before being added to 384-well compound plates containing 10-point serial 3-fold dilutions of compound. Controls included no inhibitor (dimethyl sulfoxide [DMSO] only) and a combination of 3 antiviral agents, efavirenz, indinavir, and an integrase strand transfer inhibitor, L-002254051, at final concentrations of 4 µM each. The infected or treated cells were cultured at 37 °C, 5% CO2, and 90% humidity until evaluation of infection was conducted at approximately 48 and 72 h post-infection by counting the number of GFP cells in each well using an Acumen eX3 scanner (SPT Labtech; Melbourn, UK). The reproductive ratio, R, was calculated by dividing the number of infected cells at 72 h by the number at 48 h post-infection. The percentage inhibition caused by a test compound was calculated by the following formula:
inhibition = [1−(Rtest compound − Rpositive control)]/(RDMSO only − Rpositive control) × 100%\]
The dose–response curves of each test compound were plotted as percentage inhibition versus the test concentration.

In series [2] the test system is HIV-1. Description: Single-cycle antiviral assay in PBMCs. The class given is cell-based. Here is the method:
To evaluate the ability of inhibitors to prevent HIV-1 infection in primary cells, human PBMCs obtained from Biological Specialty Corporation (Colmar, PA, USA) were used to assess antiviral activity. The proviral variants used for these studies were generated by site-directed mutagenesis in a proviral vector derived from NL43 [52] that encodes GFP (pNLG1-P2A-GFP). Virus was produced by transfection in 293T cells.
PBMCs were activated with phytohemagglutinin (PHA) at 5 μg/mL in Roswell Park Memorial Institute (RPMI) 1640 medium containing 10% heat-inactivated fetal bovine serum (FBS) for 2–3 days. Compound plates were prepared by dispensing compounds dissolved in DMSO into 384-well poly-d-lysine-coated plates (0.2 μL per well) using an Echo acoustic dispenser (Labcyte; San Jose, CA, USA). Each compound was tested in a 10-point serial 3-fold dilution (typical final concentrations: 5,000 to 0.1 nM). Controls included no inhibitor (DMSO only) and a combination of 3 antiviral agents, efavirenz, indinavir, and the integrase strand transfer inhibitor, L-002254051, at final concentrations of 4 μM each. PHA-activated human PBMCs were washed and resuspended in RPMI 1640 containing 10% NHS and 30 units per mL of interleukin-2 (IL-2) at 6 × 10^5 cells per mL. PBMCs were added to the compound plates and cultured for 24 h at 37 °C, 5% CO2, and 90% humidity. The appropriate HIV-1 variant was added to the PBMCs and cultured at 37 °C, 5% CO2, and 90% humidity for an additional 24 h.
HIV-1–infected cells were quantified by counting the number of GFP cells in each well using an Acumen eX3 scanner (SPT Labtech; Melbourn, UK).

A short description of another series: PK in rats. The class given is in vivo. The settings on record: male, Wistar Hannover, plasma, rat. Here is the method:
All animal procedures were conducted according to the highest ethical standards using procedures approved by the Institutional Animal Care and Use Committee of Merck & Co., Rahway, NJ, USA (APS 2016-600774-FEB). Fasted male Wistar Hannover rats (n = 3 in each arm) weighing approximately 325 g were used for the PK studies. All blood samples were collected in EDTA-coated tubes at the time points specified below. For the IV arm of the study, a cannula was implanted in the jugular vein for dose administration and blood sampling. […] For the oral arm of the study, a solution of MK-8527 was administered by oral gavage at 2 mg/kg in 0.5% methylcellulose in water to fasted rats. […] The concentrations of MK-8527 in plasma were determined by LC–MS/MS assays following a protein precipitation step. Aliquots (50 µL) of plasma were precipitated by addition of 150 µL of acetonitrile solution-containing internal standard (IS), followed by centrifugation at 3,000 rpm for 10 min. A 75-µL aliquot of the supernatant was transferred into a 96-well plate, and 5 µL of each sample was used for analysis. LC–MS/MS analysis was performed on a Transcend LC system with HTS PAL CTC autosampler (Thermo Fisher Scientific, Waltham, MA, USA) interfaced to an API-5000 mass spectrometer using the turbo ion spray interface (Sciex, Framingham, MA, USA). Separation of MK-8527 was achieved on an Xselect HSS XP T3 column (50 × 2.1 mm, 2.5 µm; […] The chromatography for plasma samples was run using gradient elution as follows: the column was equilibrated with 100% A. […] The total run time was 4.15 min. Quantification was done by monitoring the transition of m/z 309 to m/z 169 or 133 for MK-8527. The method was linear across a concentration range of 2–10,000 ng/mL in plasma.

The record followed here is publication PMC12380353, “MK-8527 is a novel inhibitor of HIV-1 reverse transcriptase translocation with potential for extended-duration dosing” (PLOS Biology, 2025).

For the compound `C#C[C@]1(COP(=O)(O)OP(=O)(O)OP(=O)(O)O)O[C@@H](n2ccc3c(N)nc(Cl)nc32)C[C@@H]1O` [MK-8527-TP], the “Chain termination mechanism (ICT/DCT)” value at HIV RT was “both ICT and DCT occurred”.
As a reminder, the IC50 is the concentration at which inhibition is half-maximal. Usually bioavailability stands for dose-corrected exposure relative to a reference, in per cent. A high value points to good availability. On to `C#C[C@]1(CO)O[C@@H](n2ccc3c(N)nc(Cl)nc32)C[C@@H]1O` [Compound 12, (2R,3S,5R)-5-(4-amino-2-chloro-7H-pyrrolo[2,3-d]pyrimidin-7-yl)-2-ethynyl-2-(hydroxymethyl)tetrahydrofuran-3-ol], for which the IC50 in the series on HIV-1 [1] (Human immunodeficiency virus 1, WT HIV-1, multicycle assay) came out at 3.4 nM; in the series on HIV-1 [1] (WT HIV-1, multicycle assay, listed as MK-8527) it was 3.37 ± 1 nM; in the series on HIV-1 [2] (Human immunodeficiency virus 1, PBMC, read-out: PBMC IC50, HIV-1, single-cycle assay, human PBMCs, 10% NHS), 0.2 nM; in the series on HIV-1 [2] (read-out: PBMC IC50, HIV-1, single-cycle assay, human PBMCs, 10% NHS, listed as MK-8527), 0.21 ± 0.09 nM. The “MT4-GFP IC50” value in the series on HIV-1 [1] (WT HIV-1, multicycle assay) was “single-digit nanomolar potency”. Moreover, in the series with HIV-1 [2] (HIV-1, single-cycle assay, human PBMCs, 10% NHS), the “PBMC IC50” value is “subnanomolar potency”. Moreover, the clearance in “PK in rats” (IV 1.0 mg/kg, read-out: CLp) was 18.1 ± 3.3 mL/min/kg. In addition, the Vd in the series “PK in rats” (IV 1.0 mg/kg, read-out: Vdss) is 2 ± 0.3 L/kg. Moreover, the bioavailability in “PK in rats” (oral 2 mg/kg) is 57%. Further, the half-life in the series “PK in rats” (IV 1.0 mg/kg, read-out: t½ (converted)) is 2.3 ± 1.3 h.
